Data as given in patent publication US10787443B2, “RAF-degrading conjugate compounds” (ZAMBONI CHEM SOLUTIONS INC., priority 2017, dated 2020).

test system: GST-Braf kinase domain and biotinylated E3 substrate adapter (VHL/EloB/EloC complex or CRBN318-425); experiment: Dimerization assay (AlphaScreen/AlphaLisa), RAF/E3 dimerization; format: binding; details: Table 15; relative value; compounds 4 fold serial dilutions from 20 μM

Structure (SMILES)	RAF/E3 Dimerization
Cc1ncc(NC(=O)c2cccc(C(F)(F)F)c2)cc1-c1cnc(OCCOCCOCCOCCOCCOCc2cn(CCCCCC(=O)Nc3cccc4c3C(=O)N(C3CCC(=O)NC3=O)C4=O)nn2)c(N2CCOCC2)c1 (centres unmarked) [Compound 1.008, N-(6′-((1-(1-(6-((2-(2,6-dioxopiperidin-3-yl)-1,3-dioxoisoindolin-4-yl)amino)-6-oxohexyl)-1H-1,2,3-triazol-4-yl)-2,5,8,11,14-pentaoxahexadecan-16-yl)oxy)-2-methyl-5′-morpholino-[3,3′-bipyridin]-5-yl)-3-(trifluoromethyl)benzamide]	+ + +

same assay, conditions: Table 17; relative value; compounds 4 fold serial dilutions from 20 μM

Structure (SMILES)	RAF/E3 Dimerization
Cc1ccc(NC(=O)c2cccc(C(F)(F)F)c2)cc1-c1cnc(OC(C)Cc2cnnn2CCCCCC(=O)Nc2cccc3c2C(=O)N(C2CCC(=O)NC2=O)C3=O)c(N2CCOCC2)c1 (racemic) [Compound 1.011, (±)-N-(3-(6-((1-(1-(6-((2-(2,6-dioxopiperidin-3-yl)-1,3-dioxoisoindolin-4-yl)amino)-6-oxohexyl)-1H-1,2,3-triazol-5-yl)propan-2-yl)oxy)-5-morpholinopyridin-3-yl)-4-methylphenyl)-3-(trifluoromethyl)benzamide]	+ (5% > RAF/E3 Dimerization)
Cc1ncsc1-c1ccc([C@H](C)NC(=O)[C@@H]2C[C@@H](O)CN2C(=O)[C@H](NC(=O)COCCOCCOCCOCCCCCCn2cc(-c3ccnc(NCCC#N)n3)c(-c3cnc4[nH]ccc4c3)n2)C(C)(C)C)cc1 [Compound 2.045, (2S,4R)-1-((R)-2-(tert-butyl)-21-(4-(2-((2-cyanoethyl)amino)pyrimidin-4-yl)-3-(1H-pyrrolo[2,3-b]pyridin-5-yl)-H-pyrazol-1-yl)-4-oxo-6,9,12,15-tetraoxa-3-azahenicosan-1-oyl)-4-hydroxy-N—((S)-1-(4-(4-methylthiazol-5-yl)phenyl)ethyl)pyrrolidine-2-carboxamide]	+++++ (RAF/E3 Dimerization ≥75%)
Cc1ncsc1-c1ccc([C@H](C)NC(=O)C2C[C@@H](O)CN2C(=O)C(NC(=O)CCOCCOCCNC(=O)c2cc(Oc3ccc(NC(=O)Nc4ccc(Cl)c(C(F)(F)F)c4)cc3)ccn2)C(C)(C)C)cc1 (stereo in doubt) [Compound 1.014, 4-(4-(3-(4-chloro-3-(trifluoromethyl)phenyl)ureido)phenoxy)-N-(2-(2-(3-(((R)-1-((2S,4R)-4-hydroxy-2-(((S)-1-(4-(4-methylthiazol-5-yl)phenyl)ethyl)carbamoyl)pyrrolidin-1-yl)-3,3-dimethyl-1-oxobutan-2-yl)amino)-3-oxopropoxy)ethoxy)ethyl)picolinamide]	+ (5% > RAF/E3 Dimerization)
O=C1CCC(N2Cc3c(CCCOCCOCCNC(=O)c4cc(Oc5ccc(NC(=O)Nc6ccc(Cl)c(C(F)(F)F)c6)cc5)ccn4)cccc3C2=O)C(=O)N1 (centres unmarked) [Compound 2.033, 4-(4-(3-(4-chloro-3-(trifluoromethyl)phenyl)ureido)phenoxy)-N-(2-(2-(3-(2-(2,6-dioxopiperidin-3-yl)-1-oxoisoindolin-4-yl)propoxy)ethoxy)ethyl)picolinamide]	++ (25% > RAF/E3 Dimerization ≥ 5%)
Cc1ncc(NC(=O)c2cccc(C(F)(F)F)c2)cc1-c1cnc(OCCOCCOCC(=O)NCCOCCCc2cccc3c2CN(C2CCC(=O)NC2=O)C3=O)c(N2CCOCC2)c1 (centres unmarked) [Compound 2.019, N-(6′-((15-(2-(2,6-dioxopiperidin-3-yl)-1-oxoisoindolin-4-yl)-8-oxo-3,6,12-trioxa-9-azapentadecyl)oxy)-2-methyl-5′-morpholino-[3,3′-bipyridin]-5-yl)-3-(trifluoromethyl)benzamide]	+++ (50% > RAF/E3 Dimerization ≥ 25)
Cc1ncsc1-c1ccc([C@H](C)NC(=O)[C@@H]2C[C@@H](O)CN2C(=O)[C@H](NC(=O)CCOCCOCCOCCOCCOCCOCCNC(=O)c2cc(Oc3ccc(NC(=O)Nc4ccc(Cl)c(C(F)(F)F)c4)cc3)ccn2)C(C)(C)C)cc1 [Compound 1.016, 4-(4-(3-(4-chloro-3-(trifluoromethyl)phenyl)ureido)phenoxy)-N—((R)-23-((2S,4R)-4-hydroxy-2-(((S)-1-(4-(4-methylthiazol-5-yl)phenyl)ethyl)carbamoyl)pyrrolidine-1-carbonyl)-24,24-dimethyl-21-oxo-3,6,9,12,15,18-hexaoxa-22-azapentacosyl)picolinamide]	+ (5% > RAF/E3 Dimerization)
CNc1ncc2cc(-c3cc(NC(=O)NCCOCCOCC(=O)N[C@@H](C(=O)N4C[C@H](O)C[C@H]4C(=O)N[C@@H](C)c4ccc(-c5scnc5C)cc4)C(C)(C)C)c(F)cc3C)c(C)nc2n1 [Compound 2.042, (2S,4R)-1-((R)-12-(tert-butyl)-1-((2-fluoro-4-methyl-5-(7-methyl-2-(methylamino)pyrido[2,3-d]pyrimidin-6-yl)phenyl)amino)-1,10-dioxo-5,8-dioxa-2,11-diazatridecan-13-oyl)-4-hydroxy-N—((S)-1-(4-(4-methylthiazol-5-yl)phenyl)ethyl)pyrrolidine-2-carboxamide]	+ (5% > RAF/E3 Dimerization)
O=C1CCC(N2Cc3c(CCCCCCOCCOCCNC(=O)c4cc(Oc5ccc(NC(=O)Nc6ccc(Cl)c(C(F)(F)F)c6)cc5)ccn4)cccc3C2=O)C(=O)N1 (centres unmarked) [Compound 2.034, 4-(4-(3-(4-chloro-3-(trifluoromethyl)phenyl)ureido)phenoxy)-N-(2-(2-((6-(2-(2,6-dioxopiperidin-3-yl)-1-oxoisoindolin-4-yl)hexyl)oxy)ethoxy)ethyl)picolinamide]	++ (25% > RAF/E3 Dimerization ≥ 5%)
Cc1ncc(NC(=O)c2cccc(C(F)(F)F)c2)cc1-c1cnc(OC2CCOCC2)c(N2CCN(CCCCc3cn(CCCCCC(=O)Nc4cccc5c4C(=O)N(C4CCC(=O)NC4=O)C5=O)nn3)CC2)c1 (centres unmarked) [Compound 2.048, N-(5′-(4-(4-(1-(6-((2-(2,6-dioxopiperidin-3-yl)-1,3-dioxoisoindolin-4-yl)amino)-6-oxohexyl)-1H-1,2,3-triazol-4-yl)butyl)piperazin-1-yl)-2-methyl-6′-((tetrahydro-2H-pyran-4-yl)oxy)-[3,3′-bipyridin]-5-yl)-3-(trifluoromethyl)benzamide]	++ (25% > RAF/E3 Dimerization ≥ 5%)
CCCCCCNC(=O)Nc1cc(-c2cc3cnc(NCCOCCOCc4cn(CCCCCC(=O)N[C@@H](C(=O)N5C[C@H](O)C[C@H]5C(=O)N[C@@H](C)c5ccc(-c6scnc6C)cc5)C(C)(C)C)nn4)nc3nc2C)c(C)cc1F [Compound 2.039, (2S,4R)-1-((R)-2-(6-(4-((2-(2-((6-(4-fluoro-5-(3-hexylureido)-2-methylphenyl)-7-methylpyrido[2,3-d]pyrimidin-2-yl)amino)ethoxy)ethoxy)methyl)-1H-1,2,3-triazol-1-yl)hexanamido)-3,3-dimethylbutanoyl)-4-hydroxy-N—((S)-1-(4-(4-methylthiazol-5-yl)phenyl)ethyl)pyrrolidine-2-carboxamide]	+++++ (RAF/E3 Dimerization ≥75%)
Cc1ncc(NC(=O)c2cccc(C(F)(F)F)c2)cc1-c1cnc(OC(C)Cc2cnnn2CCCCCC(=O)Nc2cccc3c2C(=O)N(C2CCC(=O)NC2=O)C3=O)c(N2CCOCC2)c1 (racemic) [Compound 1.010, (±)-N-(6′-((1-(1-(6-((2-(2,6-dioxopiperidin-3-yl)-1,3-dioxoisoindolin-4-yl)amino)-6-oxohexyl)-1H-1,2,3-triazol-5-yl)propan-2-yl)oxy)-2-methyl-5′-morpholino-[3,3′-bipyridin]-5-yl)-3-(trifluoromethyl)benzamide]	+ (5% > RAF/E3 Dimerization)
Cc1ncc(NC(=O)c2cccc(C(F)(F)F)c2)cc1-c1cnc(OCCOCCOCC(=O)NCCCCCc2cccc3c2CN(C2CCC(=O)NC2=O)C3=O)c(N2CCOCC2)c1 (centres unmarked) [Compound 2.017, N-(6′-(2-(2-(2-((5-(2-(2,6-dioxopiperidin-3-yl)-1-oxoisoindolin-4-yl)pentyl)amino)-2-oxoethoxy)ethoxy)ethoxy)-2-methyl-5′-morpholino-[3,3′-bipyridin]-5-yl)-3-(trifluoromethyl)benzamide]	++++ (75% > RAF/E3 Dimerization ≥ 50%)
CNc1ncc2cc(-c3cc(NC(=O)NCCCCCCOCCOCCOCCOCC(=O)N[C@@H](C(=O)N4C[C@H](O)C[C@H]4C(=O)N[C@@H](C)c4ccc(-c5scnc5C)cc4)C(C)(C)C)c(F)cc3C)c(C)nc2n1 [Compound 2.043, (2S,4R)-1-((R)-22-(tert-butyl)-1-((2-fluoro-4-methyl-5-(7-methyl-2-(methylamino)pyrido[2,3-d]pyrimidin-6-yl)phenyl)amino)-1,20-dioxo-9,12,15,18-tetraoxa-2,21-diazatricosan-23-oyl)-4-hydroxy-N—((S)-1-(4-(4-methylthiazol-5-yl)phenyl)ethyl)pyrrolidine-2-carboxamide]	++ (25% > RAF/E3 Dimerization ≥ 5%)
CCCCCCNC(=O)Nc1cc(-c2cc3cnc(NCCCCc4cn(CCCCC(=O)N[C@@H](C(=O)N5C[C@H](O)C[C@H]5C(=O)N[C@@H](C)c5ccc(-c6scnc6C)cc5)C(C)(C)C)nn4)nc3nc2C)c(C)cc1F [Compound 2.038, (2S,4R)-1-((R)-2-(5-(4-(4-((6-(4-fluoro-5-(3-hexylureido)-2-methylphenyl)-7-methylpyrido[2,3-d]pyrimidin-2-yl)amino)butyl)-1H-1,2,3-triazol-1-yl)pentanamido)-3,3-dimethylbutanoyl)-4-hydroxy-N—((S)-1-(4-(4-methylthiazol-5-yl)phenyl)ethyl)pyrrolidine-2-carboxamide]	+++ (50% > RAF/E3 Dimerization ≥ 25)
Cc1ccc(NC(=O)c2cccc(C(F)(F)F)c2)cc1-c1cnc(OCCCCc2cn(CCCCCC(=O)Nc3cccc4c3C(=O)N(C3CCC(=O)NC3=O)C4=O)nn2)c(N2CCOCC2)c1 (centres unmarked) [Compound 2.013, N-(3-(6-(4-(1-(6-((2-(2,6-dioxopiperidin-3-yl)-1,3-dioxoisoindolin-4-yl)amino)-6-oxohexyl)-1H-1,2,3-triazol-4-yl)butoxy)-5-morpholinopyridin-3-yl)-4-methylphenyl)-3-(trifluoromethyl)benzamide]	++ (25% > RAF/E3 Dimerization ≥ 5%)
O=C1CCC(N2Cc3c(CCCCCCNC(=O)c4cc(Oc5ccc(NC(=O)Nc6ccc(Cl)c(C(F)(F)F)c6)cc5)ccn4)cccc3C2=O)C(=O)N1 (centres unmarked) [Compound 2.031, 4-(4-(3-(4-chloro-3-(trifluoromethyl)phenyl)ureido)phenoxy)-N-(6-(2-(2,6-dioxopiperidin-3-yl)-1-oxoisoindolin-4-yl)hexyl)picolinamide]	+ (5% > RAF/E3 Dimerization)
